“Also recorded” adds a separate entry of the source. Where two headings read alike, the source gives them in different places. Starred links: 1 amine or outer side, 2 acyl side, 3 side chain; linkers in the order of their positions; H or OH if unused. Non-standard residues stand in square brackets, D forms with d. Residues, ends and D or L forms follow the SMILES beside them. *: point of attachment. DOTA = O=C(O)CN1CCN(CC(=O)O)CCN(CC(=O)*)CCN(CC(=O)O)CC1; Sta = CC(C)C[C@H](N)[C@@H](O)CC(=O)O; Bta = N[C@@H](Cc1csc2ccccc12)C(=O)O; X1 = O=C(CN1CCC(N[*:1])CC1)[*:2]
Tests used:
PC-3 cells = assay: Internalization into PC-3 cells; type: cell-based; conditions: c = 1 nM, 1 h, 37° C., corrected for non-specific binding (10^-3 M [natLu]RM2)
Experimental: For internalization studies, PC-3 cells are harvested 24±2 h before the experiment and seeded in 24-well plates (1.5×10^5 cells/well, 1 mL). Subsequent to the removal of the culture medium, the cells are washed once with 500 μL DMEM/F-12 (5% BSA) and left to equilibrate at 37° C. for at least 15 min in 200 μL DMEM/F-12 (5% BSA). […] Next, 25 μL of the ^125I/^177Lu-labeled GRPR ligand (10 nm) is added and the cells are incubated at 37° C. for 60 min.
The experiment is terminated by placing the 24-well plate on ice for 1 min and consecutive removal of the medium. Each well is rinsed with 300 μL ice-cold PBS and the fractions from these first two steps are combined, representing the amount of free radiolabeled reference. Removal of surface bound activity is accomplished by incubation of the cells with 300 μL of ice-cold Acid Wash solution (0.02 M NaOAc, pH=5.0) for 10 min at room temperature and rinsed again with 300 μL of ice-cold PBS. The internalized activity is determined by incubation of the cells in […] NaOH (1 M) and the combination with the fraction of a subsequent washing step with 300 μL NaOH (1 M).
Each experiment (control and blockade) is performed sixfold. Free, surface bound and internalized activity is quantified in a γ-counter. Data is corrected for non-specific internalization.

[1] = Plasma studies: metabolic stability in vitro in human plasma (radio RP-HPLC); type: in vitro ADME
Summary of the method: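 Radiotracer incubated in human or murine plasma at 37° C. immediately after labeling, for 72±2 h or 6±0.5 h. Proteins precipitated with ice-cold EtOH and MeCN and centrifuged. Supernatant analysed by radio RP-HPLC.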

GRPR = biological target: T1, GRPR (Homo sapiens, UniProt P30550); assay: Determination of GRPR affinity (IC50), competition with [D-3-[125I]I-Tyr6]MJ9 on PC-3 cells; type: binding
T1 construct: endogenous in cells; host or cells: PC-3 cells
T1 sequence (P30550 whole entry): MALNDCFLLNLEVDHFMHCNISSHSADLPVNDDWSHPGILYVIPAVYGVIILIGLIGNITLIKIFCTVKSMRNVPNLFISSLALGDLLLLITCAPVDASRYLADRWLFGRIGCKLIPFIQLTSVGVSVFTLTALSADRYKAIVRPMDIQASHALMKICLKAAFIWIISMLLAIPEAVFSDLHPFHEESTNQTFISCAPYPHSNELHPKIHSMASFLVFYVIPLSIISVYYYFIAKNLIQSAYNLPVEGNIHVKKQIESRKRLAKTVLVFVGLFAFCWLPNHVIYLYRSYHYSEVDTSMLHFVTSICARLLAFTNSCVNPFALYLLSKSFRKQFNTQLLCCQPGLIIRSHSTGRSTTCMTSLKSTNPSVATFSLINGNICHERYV
Experimental: The reference ligand for IC50 studies ([D-3-[^125I]I-Tyr^6]MJ9) is prepared according to a previously published procedure. Briefly, 0.2 mg of [D-Tyr^6]MJ9 are dissolved in 20 μL Tracepur water and 280 μL TRIS buffer (25 mm TRIS HCl, 0.4 M NaCl, pH=7.9). After addition of the solution to a vial containing 150 μg Iodo-Gen® (1,3,4,6-Tetrachloro-3α,6α-diphenylglycouril, surface-bound), 5.0 μL (16 MBq) [^125I]Nal(74 TBq/mmol, 3.1 GBq/mL, 40 mM NaOH, Hartmann Analytic, Braunschweig, Germany) are added.
The GRPR-positive PC-3 cells are cultured in Dublecco modified Eagle medium/Nutrition Mixture F-12 with Glutamax-I (1:1) (Invitrigon), supplemented with 10% fetal calf serum and maintained at 37° C. in a humidified 5% CO2 atmosphere.
After removal of the culture medium, the cells are washed once with 500 μL of HBSS (Hank's balanced salt solution, Biochrom, Berlin, Germany, with addition of 1% bovine serum albumin (BSA)) and left in 200 μL HBSS (1% BSA) for 9 min at room temperature for equilibration. Next, 25 μL per well of solutions, containing either HBSS (1% BSA) as control or the respective ligand in increasing concentration (10^−10 M-10^−4 M in HBSS), are added with subsequent addition of 25 μL of [D-3-[^125I]I-Tyr^6]MJ9 (2.0 nM) in HBSS (1% BSA).
All experiments are performed in triplicate for each concentration. After 2 h incubation at room temperature, the experiment is terminated by removal of the medium and consecutive rinsing with 300 μL of HBSS. The media of both steps are combined in one fraction and represent the amount of free radiolabeled reference. Afterwards, the cells are lysed with 300 μL of 1 M NaOH for at least 15 min and united with the 300 μL NaOH of the following washing step. Quantification of bound and free radiolabeled reference is accomplished in a γ-counter.
IC50 determination for each ligand was repeated twice.

[2] = n-Octanol-PBS distribution coefficient, log D7.4; type: physicochemical; conditions: n-octanol/PBS pH 7.4; for log D7.4 ± SD (n = 8): 177Lu-labeled ligand
Experimental: Approximately 1 MBq of the labeled tracer was dissolved in 1 mL of a 1:1 mixture (v/v) of phosphate buffered saline (PBS, pH=7.4) and n-octanol in an Eppendorf tube. After vigorous mixing of the suspension for 3 min at room temperature, the vial was centrifuged at 9000 rpm for 5 min (Biofuge 15, Heraus Sepatech, Osterode, Germany) and 200 μL aliquots of both layers were measured in a γ-counter. The experiment was repeated at least four times.

[3] = system: PC-3 tumor-bearing CB17-SCID mice; assay: Biodistribution in PC-3 tumor-bearing CB17-SCID mice; type: in vivo
Experimental: All animal experiments were conducted in accordance with general animal welfare regulations in Germany (German animal protection act, as amended on 18 May 2018, Art. 141 G v. 29.3.2017 | 626, approval no. ROB-55.2-2532.Vet_02-18-109) and the institutional guidelines for the care and use of animals. To establish tumor xenografts, PC-3 cells (5×10^6 cells per 200 μL) were suspended in a 1:1 mixture (v/v) of Dulbecco's modified eagle's medium/Ham's F-12 (DMEM/F-12) with Glutamax-I (1:1) and Cultrex® Basement Membrane Matrix Type 3 (Trevigen Inc., Gaithersburg, MD, USA) and inoculated subcutaneously onto the right shoulder of 6-10 weeks old female CB17-SCID mice (Charles River Laboratories International Inc., Sulzfeld, Germany). Mice were used for experiments when tumor volume was 125-500 mm^3 (2-3 weeks after inoculation).
Approximately 1-5 MBq ([…]) of the radiolabeled GRPR antagonists were injected into the tail vein of PC-3 tumor-bearing mice and sacrificed at 1, 4 or 24 h p.i. (n=4). Selected organs were removed, weighted and measured in a γ-counter (Perkin Elmer, Waltham, MA, USA).

[4] = Plasma studies: metabolic stability in vitro in murine plasma (radio RP-HPLC); type: in vitro ADME; conditions: 37° C.
Experimental: Metabolic stability in vitro was determined applying a procedure published by Linder et al. that was slightly modified. Immediately after labeling, human (200 μL) or murine (100 μL) plasma was added and the mixture was incubated at 37° C. for 72±2 h (or 6±0.5 h). Proteins were precipitated by treatment with ice-cold EtOH (150 μL [human], 100 μL [murine]) and ice-cold MeCN (450 μL [human], 300 μL [murine]), followed by centrifugation for 20 min at 13000 rpm. The supernatants were decanted and further analyzed using radio RP-HPLC.
Therefore, only 100 μL of murine plasma was added to the tracer solution (final volume of 200 μL) immediately after labeling was finished. According to Linder et al. (Bioconjugate Chem. 20, 1171-1178 (2009)), metabolism is more rapid in murine than in human plasma for which reason the experiment was terminated after incubation at 37° C. for 6±0.5 h (FIGS. 5 and 6). Nevertheless, due to a smaller volume the murine mixture was additionally examined after incubation at 37° C. for 72±2 h (FIGS. 7 and 8).

[5] = IC50 [nM] ± SD (n = 3), ^177Lu-labeled, Table 1C, GRPR affinity
[6] = IC50 ± SD (n = 3), Table 3, [D-3-[125I]I-Tyr6]MJ9 (c = 0.2 nM), 2 h, r.t., HBSS + 1% BSA
[7] = human plasma, 37° C., 72±2 h, FIGS. 1-4

Compound | Specific internalization (mean ± SD, n = 6) (PC-3 cells) | Amount of intact tracer after incubation in human plasma for 72 ± 2 h (n = 2) [1] | metabolite, first-eluting peak in chromatogram [1] | metabolite, second peak in chromatogram [1] | remaining intact tracer in chromatogram ([1]; human, plasma, 2 h) | IC50 (GRPR; [5]) | IC50 (GRPR; [6]) | log D7.4 ± SD (n = 8) [2] | log D7.4 (n = 6), ^99mTc-labeled [2] | also measured
CC(C)C[C@H](NC(=O)C[C@H](O)[C@H](CC(C)C)NC(=O)[C@H](Cc1c[nH]cn1)NC(=O)CNC(=O)[C@@H](NC(=O)[C@H](C)NC(=O)[C@H](Cc1csc2ccccc12)NC(=O)[C@H](CCC(N)=O)NC(=O)[C@@H](Cc1ccccc1)NC(=O)CN1CCC(NC(=O)CN2CCN(CC(=O)O)CCN(CC(=O)O)CCN(CC(=O)O)CC2)CC1)C(C)C)C(N)=O [DOTA-[Bta^8]MJ9] ({DOTA}-[X1][dF]Q[Bta]AVGH[Sta]L-NH2) | 2.26 ± 0.18 % of the used activity | 18.3 ± 2.3 | 79% | 8% | 12% | 4.6 ± 0.2 nM | 4.63 ± 0.23 nM | −1.81 ± 0.02 | – | –
CC(C)C[C@H](NC(=O)C[C@H](O)[C@H](CC(C)C)NC(=O)[C@H](Cc1c[nH]cn1)NC(=O)CNC(=O)[C@@H](NC(=O)[C@H](C)NC(=O)[C@H](Cc1c[nH]c2ccccc12)NC(=O)[C@H](CCO)NC(=O)[C@@H](Cc1ccccc1)NC(=O)CN1CCC(NC(=O)CN2CCN(CC(=O)O)CCN(CC(=O)O)CCN(CC(=O)O)CC2)CC1)C(C)C)C(N)=O [DOTA-[Hse^7]MJ9] | 1.40 ± 0.16 % of the used activity | 40.1 ± 1.4 | 30% | 8% | 56% | 19.7 ± 1.6 nM | – | −2.25 ± 0.06 | – | –
CC(C)C[C@H](NC(=O)C[C@H](O)[C@H](CC(C)C)NC(=O)[C@H](Cc1c[nH]cn1)NC(=O)CNC(=O)[C@@H](NC(=O)[C@H](C)NC(=O)[C@H](Cc1c[nH]c2ccccc12)NC(=O)[C@H](CCO)NC(=O)[C@@H](Cc1ccccc1)NC(=O)CN1CCC(NC(=O)C(CNCCN)CNCCN)CC1)C(C)C)C(N)=O [N4-[Hse^7]MJ9] | – | – | – | – | – | – | – | – | −1.26 ± 0.02 | IC50 (GRPR; IC50 [nM] ± SD (n = 3), Table 5, non-labeled N4 ligands, [D-3-[125I]I-Tyr6]MJ9 (c = 0.2 nM), 2 h, r.t.): 6.97 ± 1.84 nM; tumor-to-background ratios ([3]; mouse, in vivo): highest
CC(C)C[C@H](NC(=O)C[C@H](O)[C@H](CC(C)C)NC(=O)[C@H](Cc1c[nH]cn1)NC(=O)CNC(=O)[C@@H](NC(=O)[C@H](C)NC(=O)[C@](C)(Cc1c[nH]c2ccccc12)NC(=O)[C@H](CCC(N)=O)NC(=O)[C@@H](Cc1ccccc1)NC(=O)CN1CCC(NC(=O)C(CNCCN)CNCCN)CC1)C(C)C)C(N)=O [N4-[α-Me-Trp^8]MJ9] | – | – | – | – | – | – | – | – | −1.29 ± 0.08 | tumor accumulation at 4 h p.i. compared to 1 h p.i. ([3]; mouse, in vivo): enhanced tumor accumulation compared to 1 h p.i.
CC(C)C[C@H](NC(=O)C[C@H](O)[C@H](CC(C)C)NC(=O)[C@H](Cc1c[nH]cn1)NC(=O)CNC(=O)[C@@H](NC(=O)[C@H](C)NC(=O)[C@H](Cc1c[nH]c2ccccc12)NC(=O)[C@H](CCC(N)=O)NC(=O)[C@@H](Cc1ccccc1)NC(=O)CN1CCC(NC(=O)CN2CCN(CC(=O)O)CCN(CC(=O)O)CCN(CC(=O)O)CC2)CC1)C(C)C)C(N)=O [RM2, DOTA-Pip-D-Phe-Gln-Trp-Ala-Val-Gly-His-Sta-Leu-NH2] | – | – | – | – | – | – | – | – | – | metabolite, first-eluting peak in chromatogram ([4]; 6±0.5 h): 2%; metabolite, second peak in chromatogram ([4]; 6±0.5 h): 2%; metabolite, third peak in chromatogram ([4]; 6±0.5 h): 4%; remaining intact tracer in chromatogram ([4]; 6±0.5 h, FIGS. 5-6): 92%; remaining intact tracer in chromatogram ([4]; 72±2 h, FIGS. 7-8): 67%; Amount of intact tracer after incubation in human plasma for 72 ± 2 h (n = 2) ([1]; Table 1C, 177Lu-labeled, 37° C., 72 ± 2 h, in % (unit assumed)): 33.5 ± 2.7; amount of intact tracer (in vitro stability), mean ± SD ([1]; human plasma, 37° C., 72±2 h): 33.5±2.7%; metabolite, first-eluting peak in chromatogram [1, 7]: 54%; metabolite, second peak in chromatogram [1, 7]: 9%; remaining intact tracer in chromatogram ([1]; human plasma, 37° C., 72±2 h, single chromatogram (FIGS. 1-4)): 36%; tumor retention ([3]; 177Lu-labeled, 24 h p.i., 100 pmol, FIGS. 11, 18, listed as [^177Lu]RM2): high amounts; also recorded: higher tumor retention than the other derivatives of this series
CC(C)C[C@H](NC(=O)C[C@H](O)[C@H](CC(C)C)NC(=O)[C@H](Cc1c[nH]cn1)NC(=O)CNC(=O)[C@@H](NC(=O)[C@H](C)NC(=O)[C@H](Cc1c[nH]c2ccccc12)NC(=O)[C@H](CCC(N)=O)NC(=O)[C@@H](Cc1ccc(O)c(I)c1)NC(=O)CN1CCC(N)CC1)C(C)C)C(N)=O [[D-3-I-Tyr^6]MJ9, reference compound] | 3.57 ± 0.57 % of the used activity | – | – | – | – | – | 1.33 ± 0.36 nM | – | – | IC50 ± SD (n = 3) (GRPR; Table 3, [D-3-[125I]I-Tyr6]MJ9 (c = 0.2 nM), 2 h, r.t., HBSS + 1% BSA): particularly high affinity

Reference: patent US20250339567A1, “COMPOUNDS WITH IMPROVED PHARMACOKINETICS FOR IMAGING AND THERAPY OF CANCER” (priority 2019, published 2025)
